From US20090004683A1, “Indicator Agent for Noninflammatory Stress Response and Use Thereof” (priority 2004, published 2009)
One block for each molecule: values may come before it.

What was measured:
[1] = system: Brain astrocytes; assay: IL-18 release from astrocytes with paraquat stimulation; type: cell-based, mouse
Procedure: Brain astrocytes isolated from the mouse neonatal brain by the method of Yang et al. (Yang P, Hernandez M R. Brain Res Brain Res Protoc. 2003 October; 12(2):67-76) were prepared at 1.5-2.0×10^6/ml. This was cultured in Dulbecco's minimum essential medium containing 100 nM of paraquat, which is an active oxygen generator, for 1 hour, after which the medium was exchanged with a paraquat-free medium. The cells were further cultured for 3 hours, after which the medium was collected, and the concentration of IL-18 protein in the medium was measured.

[2] = system: Brain microglia; assay: IL-18 release from microglia with paraquat stimulation; type: cell-based, mouse
Procedure: Brain microglia isolated from the mouse neonatal brain by the method of Hassan et al. (Hassan N F, Rifat S, Campbell D E, McCawley L J, Douglas S D. J. Leukoc Biol. 1991 July; 50(1):86-92) were cultured at 1.5-2.0×10^6/ml. This was cultured in Dulbecco's minimum essential medium containing 100 nM of paraquat, which is an active oxygen generator, for 1 hour, after which the medium was exchanged with a paraquat-free medium. After further cultivation for 3 hours, the medium was collected, and the concentration of IL-18 protein in the medium was measured.

[3] = system: Abdominal macrophages; assay: IL-18 release from macrophages with paraquat stimulation; type: cell-based, mouse; details: 100 nM paraquat 15 minutes, SOD 1-20 U/ml
Procedure: Abdominal macrophages isolated from mice by the method of Hamilton et al. (Hamilton T A, Weiel J E, Adams D O., J. Immunol. 1984 May; 132(5):2285-90) were cultured in Dulbecco's minimum essential medium at 1.0-2.0×10^5/dish. The medium was exchanged with the aforementioned medium containing 100 nM of paraquat, which is an active oxygen generator, and the cells were cultured for 15 minutes, after which the medium was exchanged with a paraquat-free medium, and the cells were further cultured for 3 hours, after which the medium was collected, and the concentration of IL-18 protein in the medium was measured.

[4] = system: Primary culture human skin keratinocytes; assay: IL-18 release from keratinocytes with UV-B ray irradiation; type: cell-based; details: 100 mJ UV-B, SOD 1-20 U/ml or water-soluble vitamin E 100 nM-10 mM/ml
Procedure: Primary culture human skin keratinocytes (keratinocytes: purchased from CAMBREX Company) were cultured in a basal medium for keratinocytes contained in petri dishes for cell culture 6 cm in diameter at 1.0-2.0×10^6/dish. This was irradiated with 100 mJ of ultraviolet B rays (UV-B rays), after which the cells were cultured for 1 hour, after which the medium was collected, and the concentration of IL-18 protein in the medium was measured. Also, after the UV-B ray treatment, the cells were cultured in a medium containing SOD (1, 2.5, 5, 10, 20 U/ml), which is an active oxygen eliminator, or water-soluble vitamin E (100 nM, 1, 2.5, 5, 10 mM/ml), and the concentration of IL-18 protein in the medium was measured. In the keratinocytes, the activation and release of IL-18 by the active oxygen molecular species were observed. Furthermore, these were suppressed by SOD, which is an active oxygen eliminator, or by vitamin E, which neutralizes active oxygen, dose-dependently (FIGS. 7C and 7D).

[5] = system: Primary culture human skin keratinocytes; assay: IL-18 release from keratinocytes with paraquat stimulation; type: cell-based
Procedure: Primary culture human skin keratinocytes (keratinocytes) were cultured in a basal medium for keratinocytes contained in petri dishes for cell culture 6 cm in diameter at 1.0-2.0×10^6/dish. This was cultured in the aforementioned medium containing 1 μM of paraquat, which is an active oxygen generator, for 15 minutes, after which the medium was exchanged with a paraquat-free medium, and the cells were further cultured for 1 hour, after which the medium was collected, and the concentration of IL-18 protein in the medium was measured.

[6] = system: Synovial membrane tissue; assay: IL-18 release from synovial membrane tissue with paraquat stimulation; type: cell-based, human; details: synovial membrane tissue of articular rheumatism patient, 100 nM paraquat 15 minutes; SOD 1-20 U/ml
Procedure: Synovial membrane tissue collected from the articular synovial membrane at a lesion site of an articular rheumatism patient was subjected to tissue culture in an RPMI-1640 medium containing 10% fetal bovine serum by the method of Tanaka et al. (Tanaka M, Harigai M, Kawaguchi Y, Ohta S, Sugiura T, Takagi K, Ohsako-Higami S, Fukasawa C, Hara M, Kamatani N., J. Rheumatol. 2001 August; 28(8):1779-87). The medium was exchanged with the aforementioned medium containing 100 nM of paraquat, which is an active oxygen generator, and the cells were cultured for 15 minutes, after which the medium was exchanged with a paraquat-free medium, and the cells were further cultured for 1 hour, after which the medium was collected, and the concentration of IL-18 protein in the medium was measured.

[7] = system: Primary culture human renal proximal tubular epithelial cells; assay: IL-18 release from renal tubular epithelial cells with paraquat stimulation; type: cell-based
[8] = system: phosphorylated (Thr180/Tyr182) P38 MAP kinase; assay: Phosphorylated P38MAP kinase in the adrenal of restraint stress mice (Western blotting); type: in vivo, mouse; details: Western blotting, FIG. 3D
Procedure: (§1) Each mouse was kept in a restrainer for 1 hour, and Ac-YVAD-CHO (200 μM/50 μl PBS(−)), Z-FA-fmk (100 μM/50 μl PBS(−)) and SB-203580 (100 μg/50 μl PBS(−) per mouse) were administered intraperitoneally. 1 and 3 hours after the start of restraint, SOD-1 (20 U) and DPI (30 μg) were administered intraperitoneally to the mouse, and samples were analyzed by Western blotting.
Western blot analysis of IL-18 and phosphorylated P38MAP kinase in adrenal tissue was performed as described below. The adrenal tissue was homogenized in an immunoprecipitation (IP) buffer solution (50 mM Tris pH 7.4, 150 mM NaCl, 0.5% NP-40 and 0.5% sodium deoxycholate) containing a protease inhibitor mixture (manufactured by Roche Diagnostics) using a Polytron homogenizer. The homogenate obtained (100 μg protein) was pre-clarified using protein A/G agarose (Exalpha Biologicals, Inc.), incubated with the anti-mouse IL-18 monoclonal antibody or the anti-phosphorylated (Thr180/Tyr182) P38 MAP kinase antibody and protein A/G agarose (50 μl), and centrifuged (at 13000×g for 25 minutes, 4° C.). The precipitate was boiled, and the adrenal protein was recovered, electrophoresed in 10-20% SDS-polyacrylamide gradient gel, and electrically transferred to a Hybond ECL (manufactured by Amersham) nitrocellulose membrane. The aforementioned membrane was incubated with an antibody (IL-18, phosphorylated (Thr180/Tyr182) P38 MAP kinase, caspase-1 or caspase-11), and the reacted protein was detected using an ECL plus system (manufactured by Amersham biosciences). Procaspase-11 and activated P38 MAP kinase were quantified using a Science Lab 99 image analysis system (manufactured by Fujifilm).

[9] = system: IL-18; assay: Plasma IL-18 level in restraint stress mice (ELISA); type: in vivo, mouse; details: given i.p. during restraint (Ac-YVAD-CHO 200 μM/50 μl, Z-FA-fmk 100 μM/50 μl, SB-203580 100 μg, SOD-1 20 U, DPI 30 μg)
Procedure: (§2) For restraint stress, each mouse was kept in a restrainer (a round plastic tube 27 mm in diameter) for 1, 3 or 6 hours, and IL-18 levels were measured. Regarding the analysis of IL-6, each mouse was restrained as described above, and then housed in the starting cage for 6 hours, after which a measurement was performed.
(§3) After restraint, each mouse was anesthetized with diethyl ether, and blood was drawn into an EDTA-containing tube. Plasma was separated by centrifugation at 4° C. and 10000×g for 10 minutes, and stored at −80° C. IL-18 and IL-6 were analyzed by ELISA using Quantikine™ immunoassay kit (R&D Systems) and OptEIA™ (BD-Pharmingen), respectively.
(§4) The anti-ACTH antiserum (50 μl, 1:1), dexamethasone (1 ng/50 μl PBS(−)) or the anti-IL-18 antibody (50 μl, 1:1) was administered intraperitoneally to each mouse; after 10 minutes elapsed, the animal was kept in a restraint tube for 6 hours. Synthetic ACTH (250 μg/50 μl PBS(−)) was injected to the left leg; after 6 hours elapsed, the mice were subjected to the experiment.
as §1

[10] = system: phosphorylated P38MAP kinase; assay: Immunohistochemistry of phosphorylated P38MAP kinase in adrenal cortex of stress-loaded mice; type: in vivo, mouse; details: FIG. 3F
Procedure: The adrenal was fixed in formalin, embedded in paraffin, and cut into 4-μm sections. The aforementioned tissue sections were incubated with an antibody (P38 MAP kinase, caspase-11, caspase-1 (these three were diluted 200 fold) or IL-18 (diluted 400 fold)). Using a horseradish peroxidase-conjugated secondary antibody (manufactured by Santa Cruz) and diaminobenzidin (DBA), color development was performed. For control, sections without the primary antibody and sections derived from a mouse without stress were used.

[11] = biological target: T1, caspase-1 (Mus musculus, UniProt P29452); assay: Caspase-1 activity in the adrenal of restraint stress mice (Ac-YVAD-MCA fluorescent substrate); type: in vivo; details: given i.p. during restraint
T1 construct: from tissue; host or cells: mouse adrenal (homogenate)
T1 sequence (P29452 119-296 limits assumed): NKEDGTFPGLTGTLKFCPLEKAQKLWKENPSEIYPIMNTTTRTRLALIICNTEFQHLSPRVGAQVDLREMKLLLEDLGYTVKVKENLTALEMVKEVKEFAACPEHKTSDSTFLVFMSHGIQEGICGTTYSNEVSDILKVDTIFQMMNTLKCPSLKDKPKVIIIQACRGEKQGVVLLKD
T1 sequence (P29452 315-402 limits assumed): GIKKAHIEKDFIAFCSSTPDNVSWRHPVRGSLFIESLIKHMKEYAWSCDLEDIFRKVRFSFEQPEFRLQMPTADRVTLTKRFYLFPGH
Procedure: as §1
Caspase-1 activity in the adrenal was measured using a caspase assay kit (manufactured by BD-Pharmingen). Describing briefly, a homogenate of adrenal tissue was incubated with Ac-YVAD-MCA (acetyl-L-tyrosyl-L-valyl-L-alanyl-L-aspartic acid 4-methyl-coumaryl-7-amide), which is a fluorescent substrate for caspase-1, and the MCA leaving from the aforementioned substrate was measured using a fluorescence plate reader (excitation wavelength 380 nm, irradiation wavelength 420-460 nm).

[12] = system: IL-6; assay: Plasma IL-6 level in stress-loaded wild type mice (ELISA); type: in vivo, mouse; details: stress-loaded WT mice; FIG. 5B
Procedure: as §2, §3
Using IL-18-deficient mice, the relationship between IL-6, which is another stress-related cytokine, and IL-18, was examined. Without stress, IL-6 was undetectable in WT and IL-18 KO, but after 3 hours of stress loading, the IL-6 level was 230 pg/ml in WT and 25 pg/ml in IL-18 KO (FIG. 5A). After liberation from the stress, plasma IL-6 was kept at about 80 pg/ml in WT, but decreased to 5 pg/ml in IL-18 KO (FIG. 5A). Treatment with YVAD-CHO, SOD and anti-IL-18 antibody 70% inhibited the stress-induced increase in plasma IL-6 level in WT (FIG. 5B).

[13] = system: IL-18 precursor; assay: IL-18 (precursor) level in the adrenal of restraint stress mice; type: in vivo, mouse; details: given i.p. during restraint
Procedure: as §2, §4, §1
Western blot analysis of IL-18 and phosphorylated P38MAP kinase in adrenal tissue was performed as described below. […] Procaspase-11 and activated P38 MAP kinase were quantified using a Science Lab 99 image analysis system (manufactured by Fujifilm).

[14] = system: glyoma cell line C6; details: cited from earlier work
[15] = system: procaspase-11; assay: Procaspase-11 protein in the adrenal of restraint stress mice (Western blotting); type: in vivo, mouse; details: given i.p. during restraint
Procedure: as §1
(§5) Western blot analysis of IL-18 and phosphorylated P38MAP kinase in adrenal tissue was performed as described below. The adrenal tissue was homogenized in an immunoprecipitation (IP) buffer solution (50 mM Tris pH 7.4, 150 mM NaCl, 0.5% NP-40 and 0.5% sodium deoxycholate) containing a protease inhibitor mixture (manufactured by Roche Diagnostics) using a Polytron homogenizer. […] The aforementioned membrane was incubated with an antibody (IL-18, phosphorylated (Thr180/Tyr182) P38 MAP kinase, caspase-1 or caspase-11), and the reacted protein was detected using an ECL plus system (manufactured by Amersham biosciences). Procaspase-11 and activated P38 MAP kinase were quantified using a Science Lab 99 image analysis system (manufactured by Fujifilm).

[16] = system: IL-18; assay: IL-18 in plasma and adrenal after administration of synthetic ACTH; type: in vivo, mouse; details: 250 μg injected to the left leg, after 6 hours, no restraint
Procedure: as §3, §4

[17] = system: caspase-1; assay: Procaspase-1 in the adrenal after ACTH administration (Western blotting); type: in vivo, mouse; details: FIG. 2A lane 2
Procedure: as §4, §5

Molecule: vitamin E
- activation and release of IL-18 into the medium [1]: suppressed
- activation and release of IL-18 into the medium [2]: suppressed
- activation and release of IL-18 into the medium [3]: suppressed
- activation and release of IL-18 into the medium [4]: suppressed
- activation and release of IL-18 into the medium [5]: suppressed
- activation and release of IL-18 into the medium [6]: suppressed
- activation and release of IL-18 into the medium [7]: suppressed

- stress-induced increase in caspase-1 activity in the adrenal [11]: suppressed
Molecule: CC(NC(=O)[C@H](Cc1ccccc1)NC(=O)OCc1ccccc1)C(=O)CF (some centres unmarked) [Z-FA-fmk]
- phosphorylation of P38MAP kinase in the adrenal [8]: Neither YVAD-CHO nor Z-FA-fmk influenced
- stress-induced increase in plasma IL-18 level [9]: suppressed
- accumulation of phosphorylated P38MAP kinase in adrenal cortex [10]: did not influence

Molecule: c1ccc2c(c1)[I+]c1ccccc1-2 [DPI, Diphenyleneiodonium chloride]
- stress-induced increase in plasma IL-18 level [9]: suppressed

Molecule: CC(=O)N[C@@H](Cc1ccc(O)cc1)C(=O)N[C@H](C(=O)N[C@@H](C)C(=O)N[C@H](C=O)CC(=O)O)C(C)C [YVAD-CHO, Ac-YVAD-CHO]
- phosphorylation of P38MAP kinase in the adrenal [8]: Neither YVAD-CHO nor Z-FA-fmk influenced
- stress-induced increase in plasma IL-18 level [9]: effectively inhibited
- accumulation of phosphorylated P38MAP kinase in adrenal cortex [10]: did not influence
- stress-induced increase in caspase-1 activity in the adrenal [11]: suppressed
- inhibition of the stress-induced increase in plasma IL-6 level [12]: 70%
- IL-18 precursor protein level in the adrenal [13]: did not inhibit

Molecule: C[S+]([O-])c1ccc(-c2nc(-c3ccncc3)c(-c3ccc(F)cc3)[nH]2)cc1 (centres unmarked) [SB203580]
- activation of caspase-1 subsequent to LPS [14]: suppressed
- induction of caspase-11 mRNA by LPS [14]: suppressed
- stress-induced increase in procaspase-11 protein [15]: inhibited
- stress-induced increase in plasma IL-18 level [9]: lower than those in control mice
- stress-induced increase in caspase-1 activity in the adrenal [11]: lower than those in control mice

Molecule: ACTH: Synthetic ACTH (1-24 amino acids) purchased from Peninsula Laboratories Inc. (SYSMEHFRWGKPVGKKRRPVKVYP; Corticotropin; UniProt P01189 138-161, looked up, fragment)
- plasma IL-18 level after ACTH administration ([16]; FIG. 1D): rose, but its degree was lower than that with stress loading
- IL-18 level in the adrenal after ACTH administration ([16]; FIG. 1E): rose to the same extent as in the case of stress loading
- induction of caspase-1 in the adrenal [17]: induced
